Laboratory results from US20060173015A1, “Cyclohexyldiamines as selective alpha 1a/1d adrenoreceptor antagonists for the treatment of benign prostatic hypertrophy and lower urinary tract symptoms” (priority 2004, published 2006).

Tests used:
α1a-AR = target: T1, α1a-AR (Homo sapiens, UniProt P35348); experiment: α1-Adrenergic receptor radio-ligand (125I-HEAT) binding assay, α1a subtype; settings: COS-7 cell membranes, 125I-HEAT
T1 construct: expressed in transfected cells; host or cells: COS-7
T1 sequence (P35348 1-466): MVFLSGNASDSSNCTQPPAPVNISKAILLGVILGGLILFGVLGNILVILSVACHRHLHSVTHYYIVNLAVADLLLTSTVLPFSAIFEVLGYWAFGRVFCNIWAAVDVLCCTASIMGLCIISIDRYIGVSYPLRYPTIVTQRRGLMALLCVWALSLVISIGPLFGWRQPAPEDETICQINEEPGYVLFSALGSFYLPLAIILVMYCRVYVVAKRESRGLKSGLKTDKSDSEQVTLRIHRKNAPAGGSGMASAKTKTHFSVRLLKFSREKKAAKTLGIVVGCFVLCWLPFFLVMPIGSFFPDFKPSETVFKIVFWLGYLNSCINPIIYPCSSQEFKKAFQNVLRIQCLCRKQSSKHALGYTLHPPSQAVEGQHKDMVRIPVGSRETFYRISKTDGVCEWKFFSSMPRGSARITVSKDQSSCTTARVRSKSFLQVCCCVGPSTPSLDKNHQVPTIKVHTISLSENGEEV
How it was run: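 Membranes from COS-7 cells transfected with the α1a-AR were incubated with 50 pM final ¹²⁵I-HEAT and test compound (1 pM–10 μM final, half-log steps) in Tris/EDTA/NaCl buffer pH 7.4 for 1 hr at rt. Bound radioactivity was counted after GF/C filtration, in triplicate.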

α1d-AR = target: T2, α1d-AR (Homo sapiens, UniProt P25100); experiment: α1-Adrenergic receptor radio-ligand (125I-HEAT) binding assay, α1d subtype; settings: COS-7 cell membranes, 125I-HEAT; read-out: Receptor Binding, Ki α1d-AR
T2 construct: expressed in transfected cells; host or cells: COS-7
T2 sequence (P25100 1-572): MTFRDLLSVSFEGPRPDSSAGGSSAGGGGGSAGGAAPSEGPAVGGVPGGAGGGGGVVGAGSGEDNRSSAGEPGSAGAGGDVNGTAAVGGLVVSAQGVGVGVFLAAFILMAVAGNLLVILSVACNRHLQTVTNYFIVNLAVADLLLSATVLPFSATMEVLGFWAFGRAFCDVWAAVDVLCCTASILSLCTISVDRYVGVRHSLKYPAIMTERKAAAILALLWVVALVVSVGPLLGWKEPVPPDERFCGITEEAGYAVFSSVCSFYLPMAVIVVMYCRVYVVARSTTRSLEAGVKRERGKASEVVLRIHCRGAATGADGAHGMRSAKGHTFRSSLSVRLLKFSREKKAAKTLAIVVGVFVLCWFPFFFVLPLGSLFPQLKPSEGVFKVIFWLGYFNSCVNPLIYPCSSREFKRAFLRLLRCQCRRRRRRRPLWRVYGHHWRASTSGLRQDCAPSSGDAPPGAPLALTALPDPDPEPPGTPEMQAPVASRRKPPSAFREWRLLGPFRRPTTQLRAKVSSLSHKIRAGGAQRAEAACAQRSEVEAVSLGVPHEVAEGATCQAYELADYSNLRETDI

α1b-AR = target: T3, α1b-AR (Homo sapiens, UniProt P35368); experiment: α1-Adrenergic receptor radio-ligand (125I-HEAT) binding assay, α1b subtype; settings: Receptor Binding, Ki α1b-AR, COS-7 cell membranes, 125I-HEAT
T3 sequence (P35368 1-520): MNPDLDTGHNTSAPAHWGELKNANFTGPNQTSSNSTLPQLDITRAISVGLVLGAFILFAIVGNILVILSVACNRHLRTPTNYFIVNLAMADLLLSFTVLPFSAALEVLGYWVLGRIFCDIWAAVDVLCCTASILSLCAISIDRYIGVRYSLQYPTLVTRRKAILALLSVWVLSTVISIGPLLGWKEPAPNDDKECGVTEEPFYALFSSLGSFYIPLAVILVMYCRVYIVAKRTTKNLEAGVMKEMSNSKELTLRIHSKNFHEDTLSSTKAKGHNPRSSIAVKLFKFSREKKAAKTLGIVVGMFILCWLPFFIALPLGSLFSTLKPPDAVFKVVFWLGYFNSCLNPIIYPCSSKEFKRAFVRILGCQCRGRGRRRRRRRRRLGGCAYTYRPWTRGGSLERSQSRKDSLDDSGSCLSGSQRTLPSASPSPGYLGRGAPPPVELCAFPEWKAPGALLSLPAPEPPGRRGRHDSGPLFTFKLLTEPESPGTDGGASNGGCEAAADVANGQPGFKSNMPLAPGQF

Ki (α1a-AR)	Ki (α1d-AR)	Ki (α1b-AR)	Structure (SMILES)
13.9 nM	5.2 nM	176 nM	COc1ccc(S(=O)(=O)N[C@H]2CC[C@@H](N3CCN(c4ccc(F)cc4OCC(F)(F)F)CC3)CC2)cc1OC [Cpd 75, N-cis-(4-{4-[4-Fluoro-2-(2,2,2-trifluoro-ethoxy)-phenyl]-piperazin-1-yl}-cyclohexyl)-3,4-dimethoxy-benzenesulfonamide]
17 nM	8.5 nM	196 nM	COc1ccc(Cl)cc1S(=O)(=O)N[C@H]1CC[C@@H](N2CCN(c3ccc(F)cc3OCC(F)(F)F)CC2)CC1 [Cpd 76, 5-Chloro-N-cis-(4-{4-[4-fluoro-2-(2,2,2-trifluoro-ethoxy)-phenyl]-piperazin-1-yl}-cyclohexyl)-2-methoxy-benzenesulfonamide]
43 nM	29 nM	206 nM	O=S(=O)(N[C@H]1CC[C@@H](N2CCN(c3ccc(F)cc3OCC(F)(F)F)CC2)CC1)c1cc(Cl)ccc1F [Cpd 77, 5-Chloro-2-fluoro-N-cis-(4-{4-[4-fluoro-2-(2,2,2-trifluoro-ethoxy)-phenyl]-piperazin-1-yl}-cyclohexyl)-benzenesulfonamide]
340 nM	47 nM	44 nM	COc1ccc(Cl)cc1S(=O)(=O)N[C@H]1CC[C@H](N2CCN(c3ccc(F)cc3OC(C)C)CC2)CC1 [Cpd 78, 5-Chloro-N-trans-{4-[4-(4-fluoro-2-isopropoxy-phenyl)-piperazin-1-yl]-cyclohexyl}-2-methoxy-benzenesulfonamide]
5.4 nM	14 nM	107 nM	CC(C)Oc1cc(F)ccc1N1CCN([C@H]2CC[C@H](NS(=O)(=O)c3cc(Cl)ccc3F)CC2)CC1 [Cpd 79, 5-Chloro-2-fluoro-N-trans-{4-[4-(4-fluoro-2-isopropoxy-phenyl)-piperazin-1-yl]-cyclohexyl}-benzenesulfonamide]
21 nM	38 nM	87 nM	COc1ccc(S(=O)(=O)N[C@H]2CC[C@H](N3CCN(c4ccc(F)cc4OCC(F)(F)F)CC3)CC2)cc1OC [Cpd 80, N-trans-(4-{4-[4-Fluoro-2-(2,2,2-trifluoro-ethoxy)-phenyl]-piperazin-1-yl}-cyclohexyl)-3,4-dimethoxy-benzenesulfonamide]
34 nM	51 nM	90 nM	COc1ccc(Cl)cc1S(=O)(=O)N[C@H]1CC[C@H](N2CCN(c3ccc(F)cc3OCC(F)(F)F)CC2)CC1 [Cpd 81, 5-Chloro-N-trans-(4-{4-[4-fluoro-2-(2,2,2-trifluoro-ethoxy)-phenyl]-piperazin-1-yl}-cyclohexyl)-2-methoxy-benzenesulfonamide]
52 nM	240 nM	442 nM	O=S(=O)(N[C@H]1CC[C@H](N2CCN(c3ccc(F)cc3OCC(F)(F)F)CC2)CC1)c1cc(Cl)ccc1F [Cpd 82, 5-Chloro-2-fluoro-N-trans-(4-{4-[4-fluoro-2-(2,2,2-trifluoro-ethoxy)-phenyl]-piperazin-1-yl}-cyclohexyl)-benzenesulfonamide]
1.7 nM	0.58 nM	75 nM	COc1ccc(S(=O)(=O)N[C@H]2CC[C@@H](N3CCN(c4cc(F)ccc4OCC(F)(F)F)CC3)CC2)cc1OC [Cpd 83, N-cis-(4-{4-[5-Fluoro-2-(2,2,2-trifluoro-ethoxy)-phenyl]-piperazin-1-yl}-cyclohexyl)-3,4-dimethoxy-benzenesulfonamide]
33 nM	36.1 nM	220 nM	COc1ccc(S(=O)(=O)N[C@H]2CC[C@H](N3CCN(c4cc(F)ccc4OCC(F)(F)F)CC3)CC2)cc1OC [Cpd 84, N-trans-(4-{4-[5-Fluoro-2-(2,2,2-trifluoro-ethoxy)-phenyl]-piperazin-1-yl}-cyclohexyl)-3,4-dimethoxy-benzenesulfonamide]
